Earlier results on one compound are cited in paper PMC4381587, “A novel PI3K inhibitor PIK-C98 displays potent preclinical activity against multiple myeloma” (Oncotarget, 2014).

Series [1] relates to relapsed indolent lymphoma. Also on record: method as in PMID 24450857, PMID 24450858. Particulars: phase II, single agent; cited from earlier work.
Series [2] concerns relapsed chronic lymphocytic leukemia. Also on record: method as in PMID 24450857, PMID 24450858. Particulars: phase II, single agent; cited from earlier work.

For `CC[C@H](Nc1ncnc2[nH]cnc12)c1nc2cccc(F)c2c(=O)n1-c1ccccc1` [idelalisib], the total response rate in series [1] is 57%. Besides, the overall complete rate in series [2] is given as 72%.
